The target of one data set is VPS34 (Homo sapiens, UniProt Q8NEB9). As to the kind of experiment: cell-based. As to the method: Compound dilution series was prepared in DMSO and further diluted to 4× final assay concentration in assay buffer (Buffer Q #PV5125, Thermo Fisher, supplemented with 2 mM DTT and 2 mM MnCl2). 2.5 μL of the diluted compounds were added to a 384‐well assay plate followed by 2.5 μL of 16.5 nM VPS34 enzyme (#PV5126; Thermo Fisher) and incubated for 15 min. Five microliters of substrate mix (20 μM ATP #PV3227 and 200 μM PI : PS substrate #PV5122; Thermo Fisher) in assay buffer was added, mixed, and incubated for 1 h. Five microliters of stop‐detection mix (Adapta kinase assay #PV5099; Thermo Fisher) were added, mixed, and incubated for 30 min and read with Artemis microplate reader. Percent remaining activity as compared to DMSO‐treated control samples was calculated and IC50 values were generated using […] PRISM (GraphPad Software, Inc., San Diego, CA, USA). The NanoBRET assay was performed using the manufacturer's protocol. Briefly, 293T cells were transfected with the Kinase‐NanoLuc® Fusion Vector DNA overnight. The next day cells were treated with compound and the NanoBRET tracer reagent and then read out measuring donor and acceptor emission wavelength (450 and 610 nm).

A short description of a further data set: Shake flask LogD. The format is physicochemical. As for the experimental part:
Experiments were conducted at Aragen Life Sciences Ltd. (Hyderabad, India) according to internal standard procedures.

The next data set concerns B16-F10 cells. Briefly: IFN/cytokine gene expression (qRT-PCR) and secretion (MSD) in B16-F10 cells. The format is cell-based, murine. The settings on record: 2 μM, 24 h, vs DMSO. As to the method:
RNA was isolated using the PureLink kit (#12183018A; Thermo Fisher) and DNA‐binding columns (Rneasy plus kit, #74134; Qiagen) and/or Dnase treatment (#12185010; Thermo Fisher). After quantification using NanoDrop, 50 ng·μL^−1 RNA was used for cDNA synthesis with SuperScript IV VILO Master Mix (#11756050; Thermo Fisher). Quantitative RT‐PCR was run with diluted cDNA (1 : 25 or 1 : 12.5), PowerUp SYBR Green Master Mix (#A25741; Thermo Fisher), and 200 nM primers (see Table S3) on a CFX Connect RT‐PCR system (BioRad, Hercules, CA, USA). Data were analyzed using the ΔΔCT method.
Cell culture medium was centrifuged at 300 g for 10 min at 4 °C and supernatant stored at −80 °C. Mouse blood was collected at termination in K2‐EDTA tubes on ice, centrifuged at 1270 g for 10 min at 4 °C, and plasma was stored at −80 °C. Cytokine levels were quantified using Mesoscale Discovery (MSD) assays: human CCL5 (#F21ZN), CXCL10 (#K151UFK), IFNβ (#K151VIK); mouse CCL5 (#K152A2K) and CXCL10 (#K152UFK). Low concentrations of human IFNβ were determined using High‐Sensitivity IFNβ ELISA (#41415‐1; PBL Assay Science, Piscataway, NJ, USA). CCL5/CXCL10 levels in some experiments were quantified using R&D Systems (Minneapolis, MN, USA) ELISAs: human CCL5 (#DY278) or CXCL10 (#DY266); mouse CCL5 (#DY478).
For orientation: In qPCR the cycle at which signal appears reflects the starting amount.

A short description of data set [1]: PK profiling in H1299-GFP-2xFYVE tumor-bearing mice (plasma and tumor). The format is in vivo, mouse. As for the experimental part: The study was performed by Truly Translational AB (Lund, Sweden) following Swedish legislations and approved by the ethical committee Malmö/Lunds djurförsöksetiska nämnd (M120‐15). Animals were housed 5/cage in polysulfone IVC cages at a constant temperature with 12 h light‐dark cycles and free access to food, tap water, and cage enrichment. Animals were allowed to acclimatize to the housing conditions for at least a week before the start of experiments. Female 8‐week‐old NOD.Cg‐Prkdc^ scid Il2rg^ tm1Sug /JicTac (CIEA‐NOG®) mice (supplied by Taconic Biosciences, Rensselaer, NY, USA; n = 42) were implanted subcutaneously with 1.75 × 10^6 H1299‐GFP2xFYVE cells in serum‐free RPMI in 50% Matrigel. When tumors reached 300–400 mm^3 mice were randomized and dosed with 9 or 29 mg·kg^−1 SB02024 or vehicle (PEG 200 (98%)/Polysorbate (2%)). At indicated time points after dosing, blood samples were taken by heart puncture and tumors were removed. Pharmacokinetic (PK) analysis (plasma and tumor samples) was performed by Q&Q Labs (Gothenburg, Sweden). Plasma was precipitated with acetonitrile, and after centrifugation, the soluble material was recovered. Tumor of 50–150 mg was homogenized mechanically in the presence of 5× acetonitrile relative to tissue weight using Precellys Tissue Homogenizer (Bertin Technologies, Montigny‐le‐Bretonneux, France). Samples were centrifuged and soluble material was kept for further analysis. SB02024 levels were determined using UHPLC‐QQQ: Agilent 6460 (LC–MS/MS; Agilent Technologies, Santa Clara, CA, USA). Pharmacodynamic (PD) analysis of GFP2xFYVE punctae was performed by Offspring Biosciences (Södertalje, Sweden). H1299‐GFP2xFYVE tumors were fixed by immersion in 4% formalin in PBS for 72 h at 4 °C, sampled randomly by six biopsies (diameter 1 mm), and reassembled into three separate tumor microarrays (TMAs). Each TMA block was sectioned and analyzed at eight equally spaced levels. The immunohistochemical staining was performed using the Ventana Discovery XT protocol. […]

In a further data set the test system is Me30966 cells. As to the kind of experiment: Gene expression (qRT-PCR) in Me30966 cells. It counts as cell-based, human. The settings on record: 2 μM, 24 h, vs DMSO.

Data on 1 molecule can be found in publication PMC11306511, “Combining VPS34 inhibitors with STING agonists enhances type I interferon signaling and anti‐tumor efficacy” (Molecular Oncology, 2024).

Chain of VPS34 (Q8NEB9 whole entry): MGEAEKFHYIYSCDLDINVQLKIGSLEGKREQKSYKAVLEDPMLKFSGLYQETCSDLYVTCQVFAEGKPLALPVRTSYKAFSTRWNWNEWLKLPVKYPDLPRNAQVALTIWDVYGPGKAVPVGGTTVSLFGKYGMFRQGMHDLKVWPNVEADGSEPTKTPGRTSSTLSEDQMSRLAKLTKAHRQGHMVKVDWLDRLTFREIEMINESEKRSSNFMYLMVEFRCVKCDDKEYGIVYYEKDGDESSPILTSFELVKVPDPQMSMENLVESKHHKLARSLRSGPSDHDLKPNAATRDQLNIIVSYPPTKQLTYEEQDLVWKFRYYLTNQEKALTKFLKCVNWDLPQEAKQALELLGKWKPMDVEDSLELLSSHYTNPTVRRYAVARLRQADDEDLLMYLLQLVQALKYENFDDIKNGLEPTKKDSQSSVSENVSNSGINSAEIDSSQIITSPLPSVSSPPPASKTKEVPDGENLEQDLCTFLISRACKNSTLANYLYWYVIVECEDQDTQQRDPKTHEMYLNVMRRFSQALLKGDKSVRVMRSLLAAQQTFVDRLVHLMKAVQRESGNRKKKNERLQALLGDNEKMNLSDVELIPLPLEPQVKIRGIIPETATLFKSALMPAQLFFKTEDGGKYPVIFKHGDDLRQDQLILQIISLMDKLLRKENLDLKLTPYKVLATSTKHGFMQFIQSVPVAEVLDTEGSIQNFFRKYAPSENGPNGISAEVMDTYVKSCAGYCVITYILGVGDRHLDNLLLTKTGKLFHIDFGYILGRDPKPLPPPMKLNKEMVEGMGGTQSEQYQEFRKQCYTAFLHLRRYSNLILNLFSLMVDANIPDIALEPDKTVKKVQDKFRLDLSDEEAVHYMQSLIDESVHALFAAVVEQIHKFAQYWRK
Method for Me30966 cells: (A) IFNB1 gene expression quantified by qRT-PCR after 24h treatment with DMSO control or 2 µM of VPS34 inhibitor
(=VPS34i, SB02024 or SAR405) in Me30966 cells.

As to `C[C@@H]1COCCN1c1cc(N2CCCC[C@@H]2C(F)(F)F)[nH]c(=O)c1` [SB02024], half-maximal inhibition on VPS34 (IC50) required 5.7 nM. Moreover, the logD (as a rule, the decadic logarithm of the distribution of all forms, ionised or not, between an organic phase and buffer at a given pH) in the data set “Shake flask LogD” was found to be 1.8. Also, the “transcription of IFNB1 and ISGs IRF1, IRF7, IRF9” value with B16-F10 cells was “significantly increased”. For the same molecule, the Cmax (in general, the maximum level reached in the sampled fluid or tissue) in data set [1] (female, NOD.Cg-Prkdc scid Il2rg tm1Sug/JicTac (CIEA-NOG), mouse, oral 29 mg·kg^−1, plasma and tumor, H1299-GFP-2xFYVE tumor-bearing CIEA NOG mice) was ~10 µM. In addition, in data set [1] (female, NOD.Cg-Prkdc scid Il2rg tm1Sug/JicTac (CIEA-NOG), mouse, oral 29 mg·kg^−1, tumor and plasma concentrations), the half-life – broadly, how long it takes for the measured level to halve – was 2.5 h. The “time of Cmax” value in data set [1] (oral 29 mg·kg^−1, plasma and tumor) worked out at 2 h. Further, in the data set on Me30966 cells, the IFNB1 expression entry was “significantly increased”.
